Test results published in ChEMBL document CHEMBL3297733, “Discovery and optimization of pyrrolo[1,2-a]pyrazinones leads to novel and selective inhibitors of PIM kinases” (Bioorg Med Chem, 2013).
pIC50: −log10 of the molar value.

Legend:
[1] = target: Serine/threonine-protein kinase pim-1 (Homo sapiens, UniProt P11309); test: Inhibition of human PIM1 using ARK-RERTYSFGHHA as substrate incubated for 60 mins prior to substrate addition by topcount scintillation counting analysis in presence of [P33gamma]-ATP
[2] = target: Tyrosine-protein kinase ZAP-70 (Homo sapiens, UniProt P43403); test: Inhibition of ZAP70 (unknown origin)
[3] = Plasma protein binding in rat; assay type: ADME, cell-free; conditions: read-out: PPB (converted)
[4] = target: hERG (KCNH2) (Homo sapiens, UniProt Q12809); test: Inhibition of human ERG channel at 10 uM
[5] = target: Tyrosine-protein kinase JAK1 (Homo sapiens, UniProt P23458); test: Inhibition of JAK1 (unknown origin)
[6] = Cytotoxicity against human KMS11 cells after 72 hrs by CellTitre-Glo assay; assay type: functional, cell-based; conditions: KMS-11, 72 h
[7] = target: Receptor-type tyrosine-protein kinase FLT3 (Homo sapiens, UniProt P36888); test: Inhibition of FLT3 (unknown origin)
[8] = Intrinsic clearance in rat hepatocytes; assay type: ADME, cell-based, Hepatocyte; conditions: read-out: CLH
[9] = target: Platelet-derived growth factor receptor (Homo sapiens, UniProt P09619+P16234); test: Inhibition of PDGFR (unknown origin); assay type: protein-complex assay
[10] = target: Inhibitor of nuclear factor kappa-B kinase subunit beta (Homo sapiens, UniProt O14920); test: Inhibition of IKK2 (unknown origin)
[11] = target: Mast/stem cell growth factor receptor Kit (Homo sapiens, UniProt P10721); test: Inhibition of KIT (unknown origin)
[12] = target: Vascular endothelial growth factor receptor 3 (Homo sapiens, UniProt P35916); test: Inhibition of VGFR3 (unknown origin)
[13] = Half life in BALB/c mouse at 8.2 mg/kg, po; assay type: ADME, organism-based; set-up: dose 8.2 mg/kg, route oral; conditions: in vivo
[14] = test system: MV4-11; test: Cytotoxicity against human MV4-11 cells after 72 hrs by CellTitre-Glo assay; assay type: functional, cell-based; conditions: MV4-11, 72 h
[15] = target: Tyrosine-protein kinase JAK2 (Homo sapiens, UniProt O60674); test: Inhibition of JAK2 (unknown origin)
[16] = Cytotoxicity against mouse BA/F3 cells overexpressing PIM1 after 72 hrs by CellTitre-Glo assay; assay type: functional, cell-based; conditions: BaF3, 72 h
[17] = Volume of distribution at steady state in BALB/c mouse at 8.2 mg/kg, iv; assay type: ADME, organism-based; set-up: dose 8.2 mg/kg, route intravenous; conditions: in vivo, read-out: Vdss
[18] = Cytotoxicity against human Capan1 cells after 72 hrs by CellTitre-Glo assay; assay type: functional, cell-based; conditions: CAPAN-1, 72 h
[19] = target: Aurora kinase A (Homo sapiens, UniProt O14965); test: Inhibition of aurora kinase 1 (unknown origin)
[20] = target: MAP kinase-activated protein kinase 2 (Homo sapiens, UniProt P49137); test: Inhibition of MAPKAPK2 (unknown origin)
[21] = target: Serine/threonine-protein kinase NIM1 (Homo sapiens, UniProt Q8IY84); test: Inhibition of NIM1 (unknown origin)
[22] = target: Hepatocyte growth factor receptor (Homo sapiens, UniProt P08581); test: Inhibition of c-MET (unknown origin)
[23] = Intrinsic clearance in mouse hepatocytes; assay type: ADME, cell-based, Hepatocyte; conditions: read-out: CLH
[24] = target: Tyrosine-protein kinase Lck (Homo sapiens, UniProt P06239); test: Inhibition of LCK (unknown origin)
[25] = test system: LNCaP; test: Cytotoxicity against human LNCAP cells after 72 hrs by CellTitre-Glo assay; assay type: functional, cell-based
[26] = target: Eukaryotic elongation factor 2 kinase (Homo sapiens, UniProt O00418); test: Inhibition of EEF2K (unknown origin)
[27] = target: Mitogen-activated protein kinase 14 (Homo sapiens, UniProt Q16539); test: Inhibition of P38alpha (unknown origin)
[28] = target: High affinity nerve growth factor receptor (Homo sapiens, UniProt P04629); test: Inhibition of TRKA (unknown origin)
[29] = target: Serine/threonine-protein kinase PAK 4 (Homo sapiens, UniProt O96013); test: Inhibition of PAK4 (unknown origin)
[30] = target: Insulin receptor (Homo sapiens, UniProt P06213); test: Inhibition of IR (unknown origin)
[31] = target: Aurora kinase B (Homo sapiens, UniProt Q96GD4); test: Inhibition of aurora kinase 2 (unknown origin)
[32] = Cytotoxicity against mouse BA/F3 cells after 72 hrs by CellTitre-Glo assay; assay type: cell-based; conditions: BaF3, 72 h
[33] = target: Casein kinase II (Homo sapiens, UniProt P19784+P67870+P68400); test: Inhibition of CK2 (unknown origin); assay type: protein-complex assay
[34] = Apparent permeability from apical to basolateral side in human Caco2 cells after 120 mins by LC-MS/MS analysis; conditions: Caco-2
[35] = target: Serine/threonine-protein kinase Chk1 (Homo sapiens, UniProt O14757); test: Inhibition of CHK1 (unknown origin)
[36] = target: Tyrosine-protein kinase SYK (Homo sapiens, UniProt P43405); test: Inhibition of Syk (unknown origin)
[37] = Plasma protein binding in human; assay type: ADME, cell-free; conditions: read-out: PPB (converted)
[38] = AUC in BALB/c mouse at 8.2 mg/kg, po; assay type: ADME, organism-based; set-up: dose 8.2 mg/kg, route oral; conditions: plasma
[39] = target: ALK tyrosine kinase receptor (Homo sapiens, UniProt Q9UM73); test: Inhibition of ALK (unknown origin)
[40] = target: Non-receptor tyrosine-protein kinase TYK2 (Homo sapiens, UniProt P29597); test: Inhibition of TYK2 (unknown origin)
[41] = target: Glycogen synthase kinase-3 beta (Homo sapiens, UniProt P49841); test: Inhibition of GSK3beta (unknown origin)
[42] = target: Protein-tyrosine kinase 6 (Homo sapiens, UniProt Q13882); test: Inhibition of BRK (unknown origin)
[43] = AUC in BALB/c mouse at 8.2 mg/kg, iv; assay type: ADME, organism-based; set-up: dose 8.2 mg/kg, route intravenous; conditions: plasma
[44] = target: Proto-oncogene tyrosine-protein kinase receptor Ret (Homo sapiens, UniProt P07949); test: Inhibition of RET (unknown origin)
[45] = Inhibition of PKA-alpha (unknown origin); set-up: species or system Homo sapiens
[46] = Cytotoxicity against human NCI-H929 cells after 72 hrs by CellTitre-Glo assay; assay type: functional, cell-based; conditions: NCI-H929, 72 h
[47] = target: Serine/threonine-protein kinase Nek6 (Homo sapiens, UniProt Q9HC98); test: Inhibition of NEK6 (unknown origin)
[48] = target: CDC7/DBF4 (Cell division cycle 7-related protein kinase/Activator of S phase kinase) (Homo sapiens, UniProt O00311); test: Inhibition of CDC7/DBF4 (unknown origin); assay type: protein-complex assay
[49] = Half life in BALB/c mouse at 8.2 mg/kg, iv; assay type: ADME, organism-based; set-up: dose 8.2 mg/kg, route intravenous; conditions: in vivo
[50] = target: Serine/threonine-protein kinase haspin (Homo sapiens, UniProt Q8TF76); test: Inhibition of haspin (unknown origin)
[51] = Clearance in BALB/c mouse at 8.2 mg/kg, iv; assay type: ADME, organism-based; set-up: dose 8.2 mg/kg, route intravenous; conditions: in vivo
[52] = target: Serine/threonine-protein kinase pim-3 (Homo sapiens, UniProt Q86V86); test: Inhibition of human PIM3 using ARK-RERTYSFGHHA as substrate incubated for 60 mins prior to substrate addition by topcount scintillation counting analysis in presence of [P33gamma]-ATP
[53] = Inhibition of SULU1 (unknown origin); set-up: species or system Homo sapiens

Chain of ALK tyrosine kinase receptor (Q9UM73 whole entry): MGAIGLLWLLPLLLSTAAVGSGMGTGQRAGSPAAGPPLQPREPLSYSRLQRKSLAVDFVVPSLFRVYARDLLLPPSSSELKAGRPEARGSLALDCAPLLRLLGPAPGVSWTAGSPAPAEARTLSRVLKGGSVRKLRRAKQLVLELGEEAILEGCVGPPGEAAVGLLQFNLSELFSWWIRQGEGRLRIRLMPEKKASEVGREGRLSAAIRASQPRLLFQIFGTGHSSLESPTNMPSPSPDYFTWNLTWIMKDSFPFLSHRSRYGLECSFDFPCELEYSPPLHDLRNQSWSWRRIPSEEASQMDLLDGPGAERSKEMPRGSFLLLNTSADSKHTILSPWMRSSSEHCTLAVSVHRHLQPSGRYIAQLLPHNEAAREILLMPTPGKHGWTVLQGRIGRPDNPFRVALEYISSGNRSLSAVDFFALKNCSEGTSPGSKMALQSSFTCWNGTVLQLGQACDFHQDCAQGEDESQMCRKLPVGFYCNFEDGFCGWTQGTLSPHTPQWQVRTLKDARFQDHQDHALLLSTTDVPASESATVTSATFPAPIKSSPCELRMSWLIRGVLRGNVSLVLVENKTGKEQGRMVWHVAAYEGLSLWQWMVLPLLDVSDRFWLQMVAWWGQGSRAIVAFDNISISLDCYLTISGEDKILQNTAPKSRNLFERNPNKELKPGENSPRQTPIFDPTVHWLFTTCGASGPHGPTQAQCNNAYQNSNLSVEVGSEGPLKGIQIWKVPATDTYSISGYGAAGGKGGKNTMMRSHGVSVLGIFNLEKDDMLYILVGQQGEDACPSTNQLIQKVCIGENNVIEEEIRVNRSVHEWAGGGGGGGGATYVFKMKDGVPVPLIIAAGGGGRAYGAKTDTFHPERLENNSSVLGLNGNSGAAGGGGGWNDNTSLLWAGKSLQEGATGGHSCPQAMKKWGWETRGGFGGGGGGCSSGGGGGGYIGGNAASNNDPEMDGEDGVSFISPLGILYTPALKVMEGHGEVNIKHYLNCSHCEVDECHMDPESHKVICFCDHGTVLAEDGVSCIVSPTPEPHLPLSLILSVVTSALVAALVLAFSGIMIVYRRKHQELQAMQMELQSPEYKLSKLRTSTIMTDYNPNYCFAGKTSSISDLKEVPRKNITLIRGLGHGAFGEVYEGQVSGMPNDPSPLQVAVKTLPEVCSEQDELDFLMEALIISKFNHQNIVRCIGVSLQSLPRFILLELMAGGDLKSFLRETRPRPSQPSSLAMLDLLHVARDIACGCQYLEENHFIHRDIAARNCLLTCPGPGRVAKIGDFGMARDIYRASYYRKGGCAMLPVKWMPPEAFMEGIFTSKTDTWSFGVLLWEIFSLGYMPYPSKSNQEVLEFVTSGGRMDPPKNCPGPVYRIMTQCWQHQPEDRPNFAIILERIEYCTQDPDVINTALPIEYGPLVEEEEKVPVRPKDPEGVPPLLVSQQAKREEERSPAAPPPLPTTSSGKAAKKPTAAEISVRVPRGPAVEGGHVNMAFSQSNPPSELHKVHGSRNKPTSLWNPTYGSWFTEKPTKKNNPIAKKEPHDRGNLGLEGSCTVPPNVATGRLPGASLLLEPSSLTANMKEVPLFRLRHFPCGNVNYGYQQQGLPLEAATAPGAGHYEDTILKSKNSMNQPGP
Chain of Protein-tyrosine kinase 6 (Q13882 whole entry): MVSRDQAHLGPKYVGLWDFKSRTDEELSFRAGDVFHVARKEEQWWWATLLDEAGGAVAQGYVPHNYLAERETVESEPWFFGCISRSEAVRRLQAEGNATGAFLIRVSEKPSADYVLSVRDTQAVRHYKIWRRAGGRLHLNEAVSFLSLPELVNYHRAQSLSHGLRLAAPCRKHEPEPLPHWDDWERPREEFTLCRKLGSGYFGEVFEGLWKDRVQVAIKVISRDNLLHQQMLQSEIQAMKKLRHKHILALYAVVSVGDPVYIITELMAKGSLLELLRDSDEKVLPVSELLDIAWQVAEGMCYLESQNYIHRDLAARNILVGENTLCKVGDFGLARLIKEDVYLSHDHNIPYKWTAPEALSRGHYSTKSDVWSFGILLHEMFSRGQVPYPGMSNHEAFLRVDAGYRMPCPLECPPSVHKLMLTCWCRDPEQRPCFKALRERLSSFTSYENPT
Chain of Insulin receptor (P06213 28-758 limits assumed): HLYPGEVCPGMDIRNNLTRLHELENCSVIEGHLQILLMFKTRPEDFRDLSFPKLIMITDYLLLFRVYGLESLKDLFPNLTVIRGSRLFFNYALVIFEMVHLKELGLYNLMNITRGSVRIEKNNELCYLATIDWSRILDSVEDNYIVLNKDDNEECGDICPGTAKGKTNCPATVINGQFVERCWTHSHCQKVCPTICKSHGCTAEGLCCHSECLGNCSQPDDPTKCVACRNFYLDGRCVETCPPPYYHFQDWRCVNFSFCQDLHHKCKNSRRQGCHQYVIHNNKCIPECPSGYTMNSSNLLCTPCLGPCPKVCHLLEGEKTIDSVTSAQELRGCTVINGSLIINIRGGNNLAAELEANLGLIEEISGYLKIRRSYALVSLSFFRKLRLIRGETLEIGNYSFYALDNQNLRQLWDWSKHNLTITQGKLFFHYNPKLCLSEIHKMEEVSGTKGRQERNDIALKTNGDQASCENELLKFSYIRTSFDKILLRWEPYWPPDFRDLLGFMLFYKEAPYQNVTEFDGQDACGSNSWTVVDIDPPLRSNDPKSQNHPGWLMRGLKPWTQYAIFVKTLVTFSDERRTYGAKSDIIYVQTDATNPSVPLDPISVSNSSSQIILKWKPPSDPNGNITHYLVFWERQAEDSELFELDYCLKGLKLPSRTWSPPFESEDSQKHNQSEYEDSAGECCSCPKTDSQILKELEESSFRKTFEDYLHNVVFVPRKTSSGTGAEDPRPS
Chain of Insulin receptor (P06213 763-1382 limits assumed): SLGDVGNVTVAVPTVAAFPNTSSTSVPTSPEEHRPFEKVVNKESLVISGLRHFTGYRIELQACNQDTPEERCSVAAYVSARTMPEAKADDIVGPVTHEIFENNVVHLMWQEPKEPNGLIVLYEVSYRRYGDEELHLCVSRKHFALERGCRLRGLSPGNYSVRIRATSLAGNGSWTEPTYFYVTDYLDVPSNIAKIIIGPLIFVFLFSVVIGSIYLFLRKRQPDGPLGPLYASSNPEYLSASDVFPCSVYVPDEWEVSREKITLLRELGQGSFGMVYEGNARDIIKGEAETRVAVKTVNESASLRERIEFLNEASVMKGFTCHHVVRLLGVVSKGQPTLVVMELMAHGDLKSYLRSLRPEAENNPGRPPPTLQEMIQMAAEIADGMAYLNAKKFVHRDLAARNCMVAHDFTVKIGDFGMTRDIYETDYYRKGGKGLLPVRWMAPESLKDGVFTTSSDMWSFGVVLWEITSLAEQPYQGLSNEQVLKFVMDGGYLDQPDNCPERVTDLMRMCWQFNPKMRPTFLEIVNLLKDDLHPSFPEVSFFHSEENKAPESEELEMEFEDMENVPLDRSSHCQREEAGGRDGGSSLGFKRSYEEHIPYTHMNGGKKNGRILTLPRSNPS
Chain of Inhibitor of nuclear factor kappa-B kinase subunit beta (O14920 whole entry): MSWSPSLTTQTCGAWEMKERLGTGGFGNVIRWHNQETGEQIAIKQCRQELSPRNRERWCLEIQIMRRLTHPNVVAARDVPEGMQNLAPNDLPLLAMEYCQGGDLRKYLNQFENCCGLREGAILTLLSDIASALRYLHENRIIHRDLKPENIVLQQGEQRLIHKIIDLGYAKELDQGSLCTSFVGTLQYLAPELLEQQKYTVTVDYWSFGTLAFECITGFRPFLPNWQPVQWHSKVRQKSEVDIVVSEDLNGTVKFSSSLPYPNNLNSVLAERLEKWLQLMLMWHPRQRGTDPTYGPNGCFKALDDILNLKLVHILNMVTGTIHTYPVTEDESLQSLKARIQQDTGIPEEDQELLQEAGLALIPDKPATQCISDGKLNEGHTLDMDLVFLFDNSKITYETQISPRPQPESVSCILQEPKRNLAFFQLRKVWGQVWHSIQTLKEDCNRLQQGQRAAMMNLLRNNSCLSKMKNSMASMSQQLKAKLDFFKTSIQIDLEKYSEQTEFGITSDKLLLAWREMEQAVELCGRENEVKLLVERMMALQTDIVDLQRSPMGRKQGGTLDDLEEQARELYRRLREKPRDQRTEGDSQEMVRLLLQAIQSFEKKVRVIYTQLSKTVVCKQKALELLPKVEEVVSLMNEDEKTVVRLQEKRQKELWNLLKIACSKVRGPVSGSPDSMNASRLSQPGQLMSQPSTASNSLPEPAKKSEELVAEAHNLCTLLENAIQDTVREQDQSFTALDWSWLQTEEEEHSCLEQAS
Chain of Aurora kinase B (Q96GD4 whole entry): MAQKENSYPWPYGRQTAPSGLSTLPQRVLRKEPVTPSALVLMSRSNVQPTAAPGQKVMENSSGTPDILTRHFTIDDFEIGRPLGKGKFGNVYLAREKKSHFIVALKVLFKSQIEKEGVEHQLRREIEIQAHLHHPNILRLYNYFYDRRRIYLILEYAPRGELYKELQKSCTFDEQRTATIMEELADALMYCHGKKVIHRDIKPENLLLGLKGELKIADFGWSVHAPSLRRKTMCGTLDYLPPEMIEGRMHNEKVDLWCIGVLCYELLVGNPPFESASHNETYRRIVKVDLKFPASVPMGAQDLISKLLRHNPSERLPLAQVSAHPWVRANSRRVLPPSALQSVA

- pIC50 [1]: 7.52
- pIC50 [2]: < 5.00
- fraction unbound [3]: 0.036
- pIC50 [5]: < 5.00
- pIC50 [7]: < 5.00
- CLint scaled [8]: 21 mL/min/kg
- pIC50 [9]: < 5.00
- pIC50 [10]: < 5.00
- pIC50 [11]: < 5.00
- pIC50 [12]: < 5.00
- half-life [13]: 1.25 h
- pIC50 [15]: < 5.00
- Vd [17]: 11.3 L/kg
- pIC50 [19]: < 5.00
- pIC50 [20]: < 5.00
- pIC50 [21]: < 5.00
- pIC50 [22]: < 5.00
- CLint scaled [23]: 63 mL/min/kg
- pIC50 [24]: < 5.00
- pIC50 [26]: < 5.00
- pIC50 [27]: < 5.00
- pIC50 [28]: < 5.00
- pIC50 [29]: < 5.00
- pIC50 [30]: < 5.00
- pIC50 [31]: < 5.00
- pIC50 [33]: < 5.00
- Papp A→B at 2 h [34]: 8.4 ×10⁻⁶ cm/s
- pIC50 [35]: < 5.00
- pIC50 [36]: < 5.00
- fraction unbound [37]: 0.03
- AUC [38]: 0.05 µM·h
- pIC50 [39]: < 5.00
- pIC50 [40]: < 5.00
- pIC50 [41]: < 5.00
- pIC50 [42]: < 5.00
- AUC [43]: 8.75 µM·h
- pIC50 [44]: < 5.00
- pIC50 [45]: < 5.00
- pIC50 [47]: < 5.00
- pIC50 [48]: < 5.00
- half-life [49]: 13.6 h
- pIC50 [50]: < 5.00
- clearance [51]: 28 mL/min/kg
- pIC50 [52]: 7.92
- pIC50 [53]: < 5.00
SMILES: CN1CCN(C[C@@H](NC(=O)C[C@H]2CNC(=O)c3cc(-c4cccc(Cl)c4)cn32)C2CCCCC2)CC1
- inhibition at 10 µM [4]: 16%
- pIC50 [6]: 5.15
- pIC50 [14]: 5.82
- pIC50 [16]: 6.90
- pIC50 [18]: 5.43
- pIC50 [25]: 5.48
- pIC50 [32]: < 5.00
- pIC50 [46]: 5.23
